Reference: ChEMBL document CHEMBL1148093, “Biological effects of prenylated hydroquinones: structure-activity relationship studies in antimicrobial, brine shrimp, and fish lethality assays” (J Nat Prod, 1994)
Converted amounts (≈) assume the structure as drawn. The source made the active and inactive calls. The calls are words filed in the database; no cut-off is given here.

How the values were obtained:
[1] = system: Gambusia affinis; experiment: Toxicity against Gambusia affinis; conditions: in vivo
[2] = system: Artemia salina; experiment: Toxicity against Artemia salina after 24 hrs; conditions: in vivo
[3] = system: Escherichia coli; experiment: Antimicrobial activity against Escherichia coli DSM 1103 after 18 hrs by twofold serial dilution method; type: functional, organism-based
[4] = system: Micrococcus luteus; experiment: Antimicrobial activity against Micrococcus luteus DSM 348 after 18 hrs by twofold serial dilution method; type: functional
[5] = system: Candida albicans; experiment: Antimicrobial activity against Candida albicans DSM 1665 after 18 hrs by twofold serial dilution method; type: functional
[6] = system: Pseudomonas aeruginosa; experiment: Antimicrobial activity against Pseudomonas aeruginosa DSM 1117 after 18 hrs by twofold serial dilution method; type: functional, organism-based
[7] = system: Bacillus subtilis; experiment: Antimicrobial activity against Bacillus subtilis DSM 347 after 18 hrs by twofold serial dilution method; type: functional

CC(C)=CCC/C(C)=C/CC/C(C)=C/Cc1cc(O)ccc1O
LC50 [1]: 3.3 ppm
LC50 [2]: 0.05 ppm
Activity [3]: inactive
MIC ([4]; DSM 348, 18 h): 12.5 µg/mL (≈ 39.7 µM)
MIC [5]: inactive
Activity [6]: inactive
MIC ([7]; DSM 347, 18 h): 1.56 µg/mL (≈ 4.96 µM)

CC(C)CCCC(C)CCCC(C)CCCC(C)CCCC(C)CCCC(C)CCCC(C)CCc1cc(O)ccc1O (configuration not stated)
LC50 [1]: > 100 ppm
LC50 [2]: > 10 ppm
Activity [3]: inactive
MIC [4]: inactive
MIC [5]: inactive
Activity [6]: inactive
MIC [7]: inactive

C=C(C)[C@H]1Cc2c(ccc3c2O[C@@H]2COc4cc(OC)c(OC)cc4[C@@H]2C3=O)O1 [ROTENONE]
LC50 [1]: 0.03 ppm
Activity [3]: inactive
Activity [6]: inactive

GENTAMICIN
Activity [3]: inactive
MIC [4]: 1.56 µg/mL
Activity [6]: inactive
MIC [7]: 0.78 µg/mL

CC1=CC(=O)C=CC1=O [Cresoquinone]
LC50 [1]: 5.4 ppm
LC50 [2]: 1.06 ppm
Activity [3]: inactive
MIC ([4]; DSM 348, 18 h): > 50 µg/mL
MIC ([5]; DSM 1665, 18 h): > 50 µg/mL
Activity [6]: inactive
MIC ([7]; DSM 347, 18 h): 25 µg/mL (≈ 205 µM)

CC(C)=CCc1cc(O)ccc1O [PRENYLHYDROQUINONE]
LC50 [1]: 22.2 ppm
LC50 [2]: 0.54 ppm
Activity [3]: inactive
MIC ([4]; DSM 348, 18 h): 25 µg/mL (≈ 140 µM)
MIC ([5]; DSM 1665, 18 h): > 50 µg/mL
Activity [6]: inactive
MIC ([7]; DSM 347, 18 h): > 50 µg/mL

CC(C)CCCC(C)CCCC(C)CCc1cc(O)ccc1O (configuration not stated)
LC50 [1]: 21.3 ppm
LC50 [2]: 0.02 ppm
Activity [3]: inactive
MIC ([4]; DSM 348, 18 h): > 50 µg/mL
MIC [5]: inactive
Activity [6]: inactive
MIC ([7]; DSM 347, 18 h): > 50 µg/mL

CC1=CCC[C@H]2[C@](C)(Cc3cc(O)ccc3O)[C@@H](C)CC[C@]12C [AVAROL]
LC50 [1]: 4.6 ppm
LC50 [2]: 0.18 ppm
Activity [3]: inactive
MIC ([4]; DSM 348, 18 h): > 50 µg/mL
MIC [5]: inactive
Activity [6]: inactive
MIC ([7]; DSM 347, 18 h): > 50 µg/mL

CC(C)=CCC/C(C)=C/CC/C(C)=C/CC/C(C)=C/CC/C(C)=C/CC/C(C)=C/CC/C(C)=C/CC1=CC(=O)C=CC1=O
LC50 [1]: > 100 ppm
LC50 [2]: 1.26 ppm
Activity [3]: inactive
MIC [4]: inactive
MIC [5]: inactive
Activity [6]: inactive
MIC [7]: inactive

CC(C)=CCC/C(C)=C/CC1=CC(=O)C=CC1=O
LC50 [1]: 0.2 ppm
LC50 [2]: 0.05 ppm
Activity [3]: inactive
MIC ([4]; DSM 348, 18 h): 12.5 µg/mL (≈ 51.2 µM)
MIC ([5]; DSM 1665, 18 h): 25 µg/mL (≈ 102 µM)
Activity [6]: inactive
MIC ([7]; DSM 347, 18 h): 12.5 µg/mL (≈ 51.2 µM)

CC(C)=CCC/C(C)=C/CC/C(C)=C/CC/C(C)=C/CC/C(C)=C/CC/C(C)=C/CC/C(C)=C/Cc1cc(O)ccc1O
LC50 [1]: > 100 ppm
LC50 [2]: 0.91 ppm
Activity [3]: inactive
MIC [4]: inactive
MIC [5]: inactive
Activity [6]: inactive
MIC [7]: inactive

CC(C)=CCC/C(C)=C/CC/C(C)=C/CC/C(C)=C/CC/C(C)=C/CC/C(C)=C/CC/C(C)=C/CC/C(C)=C/CC1=CC(=O)C=CC1=O
LC50 [1]: > 100 ppm
LC50 [2]: 1.45 ppm
Activity [3]: inactive
MIC [4]: inactive
MIC [5]: inactive
Activity [6]: inactive
MIC [7]: inactive

CC(C)=CCC/C(C)=C/CC/C(C)=C/CC/C(C)=C/CC/C(C)=C/CC/C(C)=C/CC1=CC(=O)C=CC1=O
Activity [3]: inactive
MIC [4]: inactive
MIC [5]: inactive
Activity [6]: inactive
MIC [7]: inactive

O=C1C=CC(=O)C=C1 [BENZOQUINONE]
Activity [3]: inactive
MIC ([4]; DSM 348, 18 h): > 50 µg/mL
MIC ([5]; DSM 1665, 18 h): 25 µg/mL (≈ 231 µM)
Activity [6]: inactive
MIC ([7]; DSM 347, 18 h): > 50 µg/mL

Cc1cc(O)ccc1O [METHYLHYDROQUINONE]
LC50 [1]: 38.5 ppm
LC50 [2]: > 10 ppm
Activity [3]: inactive
MIC ([4]; DSM 348, 18 h): > 50 µg/mL
MIC ([5]; DSM 1665, 18 h): > 50 µg/mL
Activity [6]: inactive
MIC ([7]; DSM 347, 18 h): 25 µg/mL (≈ 201 µM)

Clc1ccc(COC(Cn2ccnc2)c2ccc(Cl)cc2Cl)c(Cl)c1 (configuration not stated) [MICONAZOLE]
Activity [3]: inactive
MIC ([5]; DSM 1665, 18 h): 1.56 µg/mL (≈ 3.75 µM)
Activity [6]: inactive

CC(C)CCCC(C)CCCC(C)CCCC(C)CCCC(C)CCCC(C)CCc1cc(O)ccc1O (configuration not stated)
LC50 [1]: > 100 ppm
LC50 [2]: > 10 ppm
Activity [3]: inactive
MIC [4]: inactive
MIC [5]: inactive
Activity [6]: inactive
MIC [7]: inactive

CC(C)CCc1cc(O)ccc1O
LC50 [1]: 3.3 ppm
LC50 [2]: 0.29 ppm
Activity [3]: inactive
MIC ([4]; DSM 348, 18 h): 6.25 µg/mL (≈ 34.7 µM)
MIC ([5]; DSM 1665, 18 h): > 50 µg/mL
Activity [6]: inactive
MIC ([7]; DSM 347, 18 h): 12.5 µg/mL (≈ 69.3 µM)

CC(C)=CCC/C(C)=C/CC/C(C)=C/CC/C(C)=C/CC/C(C)=C/CC/C(C)=C/CC/C(C)=C/CC/C(C)=C/Cc1cc(O)ccc1O
LC50 [1]: > 100 ppm
LC50 [2]: 0.98 ppm
Activity [3]: inactive
MIC [4]: inactive
MIC [5]: inactive
Activity [6]: inactive
MIC [7]: inactive

CC(C)=CCC/C(C)=C/Cc1cc(O)ccc1O [GEROQUINOL]
LC50 [1]: 4.6 ppm
LC50 [2]: 0.01 ppm
Activity [3]: inactive
MIC ([4]; DSM 348, 18 h): 12.5 µg/mL (≈ 50.7 µM)
MIC ([5]; DSM 1665, 18 h): 25 µg/mL (≈ 101 µM)
Activity [6]: inactive
MIC ([7]; DSM 347, 18 h): 6.25 µg/mL (≈ 25.4 µM)

CC(C)CCCC(C)CCCC(C)CCCC(C)CCCC(C)CCCC(C)CCCC(C)CCCC(C)CCc1cc(O)ccc1O (configuration not stated)
LC50 [1]: > 100 ppm
LC50 [2]: > 10 ppm
Activity [3]: inactive
MIC [4]: inactive
MIC [5]: inactive
Activity [6]: inactive
MIC [7]: inactive

CC(C)=CCC/C(C)=C/CC/C(C)=C/CC/C(C)=C/CC/C(C)=C/CC/C(C)=C/Cc1cc(O)ccc1O
LC50 [1]: > 100 ppm
LC50 [2]: 0.63 ppm
Activity [3]: inactive
MIC [4]: inactive
MIC [5]: inactive
Activity [6]: inactive
MIC [7]: inactive

Oc1ccc(O)cc1 [HYDROQUINONE]
LC50 [1]: 21.5 ppm
LC50 [2]: 0.35 ppm
Activity [3]: inactive
MIC ([4]; DSM 348, 18 h): > 50 µg/mL
MIC [5]: inactive
Activity [6]: inactive
MIC ([7]; DSM 347, 18 h): > 50 µg/mL

CC(C)=CCC1=CC(=O)C=CC1=O
LC50 [1]: 1.4 ppm
LC50 [2]: 0.19 ppm
Activity [3]: inactive
MIC ([4]; DSM 348, 18 h): 25 µg/mL (≈ 142 µM)
MIC ([5]; DSM 1665, 18 h): > 50 µg/mL
Activity [6]: inactive
MIC ([7]; DSM 347, 18 h): 25 µg/mL (≈ 142 µM)

CC(C)CCCC(C)CCCC(C)CCCC(C)CCc1cc(O)ccc1O (configuration not stated)
LC50 [1]: 43.6 ppm
LC50 [2]: 0.02 ppm
Activity [3]: inactive
MIC [4]: inactive
MIC [5]: inactive
Activity [6]: inactive
MIC [7]: inactive

CC(C)CCCC(C)CCc1cc(O)ccc1O (configuration not stated)
LC50 [1]: 0.15 ppm
LC50 [2]: 0.001 ppm
Activity [3]: inactive
MIC ([4]; DSM 348, 18 h): 6.25 µg/mL (≈ 25 µM)
MIC [5]: inactive
Activity [6]: inactive
MIC ([7]; DSM 347, 18 h): 6.25 µg/mL (≈ 25 µM)
